pKd: −log10 of the molar value.
Tests used:
[1] = test system: MDA-MB-231 breast cancer cells; test: Haptotactic cell migration toward fibronectin (modified Boyden chamber); type: cell-based; settings: MDA-MB-231 cells, 4 hours
Text: (§1) One of the well-established functions of Eph receptors is the ligand-dependent repulsive guidance of cell migration. As a ligand-mimicking agonist for EphA2, doxazosin is expected to activate EphA2 on tumor cells and repulse migrating tumor cells in vitro. To test this possibility, we first investigated the effects of doxazosin on integrin-mediated haptotactic cell migration toward fibronectin in a modified Boyden chamber cell migration assay. […] The inhibitory effects were observed when doxazosin was presented either in the bottom chamber, or in both top and bottom chambers in the Transwell assay system. […] Therefore, doxazosin can recapitulate a key function attributed to its native ligands, i.e., negative regulation of cell migration.

[2] = test system: A172-A2 glioma cells; test: as above; type: cell-based; settings: 4 hours
Text: as §1

[3] = molecular target: T1, EphA4 (Homo sapiens, UniProt P54764); test: Eph receptor activation in HEK 293 cells overexpressing EphA4; type: cell-based; settings: HEK 293 cells overexpressing EphA4, 60 minutes
T1 construct: expressed in transfected cells; host or cells: HEK 293
T1 sequence (P54764 20-986, species assumed): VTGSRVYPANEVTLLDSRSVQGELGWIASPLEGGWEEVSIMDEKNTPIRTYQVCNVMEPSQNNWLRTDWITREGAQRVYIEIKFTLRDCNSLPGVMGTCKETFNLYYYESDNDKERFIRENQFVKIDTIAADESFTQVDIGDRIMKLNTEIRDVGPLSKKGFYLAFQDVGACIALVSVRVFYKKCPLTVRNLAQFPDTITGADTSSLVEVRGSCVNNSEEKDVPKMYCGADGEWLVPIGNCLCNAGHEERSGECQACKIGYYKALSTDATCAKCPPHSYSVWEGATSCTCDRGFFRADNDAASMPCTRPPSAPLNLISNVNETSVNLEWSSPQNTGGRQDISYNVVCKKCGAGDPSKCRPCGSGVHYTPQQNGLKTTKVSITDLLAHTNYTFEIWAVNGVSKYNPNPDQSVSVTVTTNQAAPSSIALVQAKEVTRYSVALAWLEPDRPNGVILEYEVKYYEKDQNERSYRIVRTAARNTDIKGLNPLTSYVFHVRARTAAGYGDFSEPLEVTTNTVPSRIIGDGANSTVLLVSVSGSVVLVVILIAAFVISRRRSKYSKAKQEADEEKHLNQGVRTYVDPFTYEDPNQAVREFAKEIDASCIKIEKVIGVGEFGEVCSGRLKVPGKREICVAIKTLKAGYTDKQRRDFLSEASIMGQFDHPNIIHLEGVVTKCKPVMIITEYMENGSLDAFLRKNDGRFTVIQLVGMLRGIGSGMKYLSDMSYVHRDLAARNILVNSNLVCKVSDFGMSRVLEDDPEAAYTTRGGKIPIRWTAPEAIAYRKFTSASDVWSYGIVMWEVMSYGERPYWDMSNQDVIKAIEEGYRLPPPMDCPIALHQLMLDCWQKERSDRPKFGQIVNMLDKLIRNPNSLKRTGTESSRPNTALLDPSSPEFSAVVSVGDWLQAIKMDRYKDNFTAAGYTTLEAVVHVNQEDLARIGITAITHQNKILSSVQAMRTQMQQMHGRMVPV
Experimental: Cells were plated in 24-well dishes at a density of 100,000 cells/well and grown for 24 hours prior to stimulation with appropriate compounds and ephrins for the given amounts of time. Compounds were prepared in DMSO at 500 times the final concentrations and 0.2% DMSO was used as vehicle control. Following treatment, cells were lysed directly in SDS Gel Loading Buffer and immunoblotted as described previously. […] For this purpose, HEK 293 cell lines overexpressing EphA1, EphA2, EphA3, EphA4, and EphB3 kinases were utilized.

[4] = molecular target: EphA2 (Homo sapiens, UniProt P29317); test: EphA2 activation in HEK 293-A2 cells (pEphA/B immunoblot); type: cell-based; set-up: expressed in transfected cells; host or cells: HEK 293 (HEK 293-A2)
Chain of EphA2 (P29317 24-976): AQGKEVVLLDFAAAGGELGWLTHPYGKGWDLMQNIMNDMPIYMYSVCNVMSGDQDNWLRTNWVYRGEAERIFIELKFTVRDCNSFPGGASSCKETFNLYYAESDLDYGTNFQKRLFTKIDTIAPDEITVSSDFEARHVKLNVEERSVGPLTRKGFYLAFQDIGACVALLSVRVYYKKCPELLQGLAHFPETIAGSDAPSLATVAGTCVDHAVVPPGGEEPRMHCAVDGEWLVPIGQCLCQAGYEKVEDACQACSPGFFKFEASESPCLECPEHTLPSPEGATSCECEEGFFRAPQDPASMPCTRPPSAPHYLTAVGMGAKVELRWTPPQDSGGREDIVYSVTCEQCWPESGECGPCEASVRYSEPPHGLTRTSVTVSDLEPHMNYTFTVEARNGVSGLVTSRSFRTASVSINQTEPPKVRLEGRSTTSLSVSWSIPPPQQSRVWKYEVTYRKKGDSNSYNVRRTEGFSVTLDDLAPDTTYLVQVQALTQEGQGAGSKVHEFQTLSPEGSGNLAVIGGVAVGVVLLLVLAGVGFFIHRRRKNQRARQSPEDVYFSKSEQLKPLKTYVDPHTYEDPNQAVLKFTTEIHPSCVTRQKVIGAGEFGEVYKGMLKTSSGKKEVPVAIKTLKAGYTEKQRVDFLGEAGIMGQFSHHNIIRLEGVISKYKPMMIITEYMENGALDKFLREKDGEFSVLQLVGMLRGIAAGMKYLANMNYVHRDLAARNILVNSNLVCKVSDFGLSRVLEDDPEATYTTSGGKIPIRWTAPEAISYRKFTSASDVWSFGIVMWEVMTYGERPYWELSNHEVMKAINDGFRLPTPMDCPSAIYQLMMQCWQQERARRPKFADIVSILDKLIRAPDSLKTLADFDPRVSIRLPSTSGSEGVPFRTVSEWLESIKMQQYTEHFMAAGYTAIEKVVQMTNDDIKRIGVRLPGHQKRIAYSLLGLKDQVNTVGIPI
Experimental: Cells were plated in 24-well dishes at a density of 100,000 cells/well and grown for 24 hours prior to stimulation with appropriate compounds and ephrins for the given amounts of time. Compounds were prepared in DMSO at 500 times the final concentrations and 0.2% DMSO was used as vehicle control. Following treatment, cells were lysed directly in SDS Gel Loading Buffer and immunoblotted as described previously. Immunoprecipitation and immunofluorescence staining was performed as described. For immunoprecipitation, 300,000 cells/well were plated in 6-well dishes and lysed in modified RIPA Buffer (20 mM Tris-HCl pH 7.4, 20 mM NaF, 150 mM NaCl, 10% glycerol, 0.1% SDS, 0.5% DCA, 2 mM EDTA, 1% Triton X-100) following treatment. Either […] of ephrin-A1-Fc, or […] of EphA2 mouse monoclonal antibody (Clone D7, Millipore) were used, and mouse IgG was used as a negative control for EphA2 IP.
To determine whether the EphA2 agonist activity of doxazosin is cell-context specific, we evaluated the effects of doxazosin on additional cell types. We first utilized HEK 293 cells overexpressing EphA2 (HEK 293-A2) that we described previously. […] Next we tested PC-3 cells that express high levels of endogenous EphA2 receptor. […] We next evaluated the time-course of activation in both MDA-231-A2 and HEK 293-A2 cells upon treatment with a single 50 μM dose of doxazosin.

[5] = test system: ERK1/2 and Akt; test: Inhibition of ERK1/2 and Akt activation in A172-A2 glioma cells (immunoblot); type: cell-based; settings: 50 μM and 100 μM, 90 minutes
Experimental: Cells were plated in 24-well dishes at a density of 100,000 cells/well and grown for 24 hours prior to stimulation with appropriate compounds and ephrins for the given amounts of time. Compounds were prepared in DMSO at 500 times the final concentrations and 0.2% DMSO was used as vehicle control. Following treatment, cells were lysed directly in SDS Gel Loading Buffer and immunoblotted as described previously. […] For immunoprecipitation, 300,000 cells/well were plated in 6-well dishes and lysed in modified RIPA Buffer (20 mM Tris-HCl pH 7.4, 20 mM NaF, 150 mM NaCl, 10% glycerol, 0.1% SDS, 0.5% DCA, 2 mM EDTA, 1% Triton X-100) following treatment. Either 10 ag of ephrin-A1-Fc, or 4 mg of EphA2 mouse monoclonal antibody (Clone D7, Millipore) were used, and mouse IgG was used as a negative control for EphA2 IP. […] We first tested this by utilizing the A172 glioma cells engineered to overexpress EphA2 receptor (A172-A2).

[6] = molecular target: T2, EphA4 LBD (Homo sapiens, UniProt P54764); test: Isothermal titration calorimetry (ITC) binding; settings: read-out: dissociation constant (KD)
T2 construct: made in house
T2 sequence (P54764 29-209, species assumed): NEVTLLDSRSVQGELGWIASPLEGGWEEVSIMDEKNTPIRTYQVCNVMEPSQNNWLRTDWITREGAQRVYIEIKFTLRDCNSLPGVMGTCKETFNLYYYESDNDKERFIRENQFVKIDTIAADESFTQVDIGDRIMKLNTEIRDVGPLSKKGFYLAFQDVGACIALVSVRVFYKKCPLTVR
Experimental: Production of the 181-residue EphA4 ligand binding domain (LBD, residues 29-209) and isothermal titration calorimetry (ITC) experiments were performed as previously described. […] By superimposing HSQC spectra, the shifted HSQC peaks could be identified and further assigned to the corresponding residues of the EphA4 ectodomain. The degree of perturbation was measured by an integrated chemical shift index (CSI) calculated by the formula [(ΔH)^2+(ΔN)^2/5]^1/2.

[7] = test system: PC3-DAB2IP KD cells; test: In vivo metastasis assay, orthotopic PC3-DAB2IP KD prostate xenograft
Experimental: PC-3 cells (from ATCC) engineered to express both GFP and DAB2IP shRNA were characterized previously. Cells were suspended in serum free medium and 2,000 cells injected directly into the prostate glands of 7 week old NCr athymic nu/nu mice. Three days after injection, mice were divided into two groups, one receiving vehicle alone (5% DMSO/10% Cremophor/PBS) and another 50 mg/kg doxazosin via intraperitoneal injection daily for 10 days. Mice were sacrificed 14 days later and intact primary tumors were imaged under a UV light box with a Digital camera. Lungs were dissected into separate lobes and GFP-expressing metastases were imaged using an inverted fluorescent microscope (Leica). Metastases were enumerated in the two largest lung lobes and placed into size categories based upon their diameters, measured in number of cells (1-10 cells). Total metastatic burden was calculated in each mouse using the following equation: [burden=Σ (# of foci×focus diameter)].
Historically, studies of prostate cancer metastasis in the preclinical setting have been hampered by the lack of human cell lines that can produce significant metastasis in a reproducible manner. […] We took advantage of this newly established model system to test how doxazosin can affect metastasis of prostate cancer. To this end, PC3-DAB2IP KD cells were injected orthotopically into the prostate glands of nude mice. Three days later, recipient mice were subject to systemic treatment by daily i.p. injection of either vehicle control, or 50 mg/kg doxazosin for 10 days. Since these cells also expressed green fluorescent protein (GFP), freshly dissected primary tumors could be readily visualized in a GFP light box (FIG. 7A top panels), and distal metastases to lungs and lymph nodes could be observed and quantified under a fluorescent microscope (FIG. 7A lower panels).
Next, we determined whether doxazosin treatment might impact overall survival. Nude mice orthotopically implanted with the PC3-DAP2IP KD cells were treated for 10 days with either doxazosin, or vehicle control and monitored for survival.

[8] = nude mice, 50 mg/kg i.p. daily for 10 days

COc1cc2nc(N3CCN(C(=O)C4COc5ccccc5O4)CC3)nc(N)c2cc1OC (stereo not shown) [doxazosin]
haptotactic cell migration toward fibronectin [1]: dose-dependent inhibition of cell migration
haptotactic cell migration toward fibronectin [2]: dose-dependent inhibition of cell migration
EphA4 kinase activation, Eph receptor panel [3]: activated both EphA2 and EphA4 kinases
concentration at which significant EphA2 activation starts ([4]; HEK 293-A2 cells, 30 minutes): 25 µM
time at which EphA2 activation became evident ([4]; HEK 293-A2 cells, single 50 μM dose): 10 min
EphA2 kinase activation, Eph receptor panel ([4]; HEK 293 cells overexpressing EphA2, 60 minutes): activated both EphA2 and EphA4 kinases
inhibition of Akt and ERK1/2 activation [5]: significant inhibition of Akt and ERK1/2 activation
pKd [6]: 4.91
overall survival ([7]; at 27 days after cell implantation, treated for 10 days, vehicle 30%): 70%
behavioral abnormalities [7, 8]: nor were there any signs of behavioral abnormalities
body weight compared with vehicle control [7, 8]: no changes in body weight
number of lung metastases compared to vehicle control [7, 8]: significant reduction in the number of lung metastases
reduction in primary tumor sizes [7, 8]: the difference was not statistically significant
sizes of lung metastases compared to vehicle-treated mice [7, 8]: significantly smaller
total metastatic burden (numbers and sizes of metastases) [7, 8]: even more significantly reduced
tumor cell dissemination to local lymph nodes [7, 8]: reduced, but not to a significant extent

Reference: patent US11814372B2, “Agonists of EPHA and their uses” (CASE WESTERN RESERVE UNIVERSITY, priority 2017, dated 2023)
